Results as given in ChEMBL document CHEMBL1155351, “Synthesis and evaluation of novel tricyclic benzo[4.5]cyclohepta[1.2]pyridine derivatives as NMDA/NR2B antagonists” (Bioorg Med Chem Lett, 2009).

Tests used:
[1] = Displacement of [3H](E)-N1-(2-methoxybenzyl)-cinnamamidine from human recombinant N-methyl-D-aspartate receptor subunit NR1a/N-methyl D-aspartate receptor subtype 2B expressed in mouse Ltk cells by radioligand binding assay
[2] = molecular target: Voltage-gated inwardly rectifying potassium channel KCNH2 (Homo sapiens, UniProt Q12809); experiment: Displacement of [35S]MK499 from human ERG expressed in HEK293 cells; type: cell-based; details: for IC50: read-out: IP
[3] = molecular target: Glutamate receptor ionotropic, NMDA 2B (Homo sapiens, UniProt Q13224); experiment: Antagonistic activity against NR2B receptor expressed in mouse Ltk cells assessed as inhibition of calcium influx by FLIPR assay; type: functional, cell-based
[4] = Binding affinity to alpha1 adrenergic receptor
[5] = species: Homo sapiens; experiment: Selectivity ratio of Ki for human NR2B to IP for human ERG

Voltage-gated inwardly rectifying potassium channel KCNH2, sequence (Q12809 whole entry): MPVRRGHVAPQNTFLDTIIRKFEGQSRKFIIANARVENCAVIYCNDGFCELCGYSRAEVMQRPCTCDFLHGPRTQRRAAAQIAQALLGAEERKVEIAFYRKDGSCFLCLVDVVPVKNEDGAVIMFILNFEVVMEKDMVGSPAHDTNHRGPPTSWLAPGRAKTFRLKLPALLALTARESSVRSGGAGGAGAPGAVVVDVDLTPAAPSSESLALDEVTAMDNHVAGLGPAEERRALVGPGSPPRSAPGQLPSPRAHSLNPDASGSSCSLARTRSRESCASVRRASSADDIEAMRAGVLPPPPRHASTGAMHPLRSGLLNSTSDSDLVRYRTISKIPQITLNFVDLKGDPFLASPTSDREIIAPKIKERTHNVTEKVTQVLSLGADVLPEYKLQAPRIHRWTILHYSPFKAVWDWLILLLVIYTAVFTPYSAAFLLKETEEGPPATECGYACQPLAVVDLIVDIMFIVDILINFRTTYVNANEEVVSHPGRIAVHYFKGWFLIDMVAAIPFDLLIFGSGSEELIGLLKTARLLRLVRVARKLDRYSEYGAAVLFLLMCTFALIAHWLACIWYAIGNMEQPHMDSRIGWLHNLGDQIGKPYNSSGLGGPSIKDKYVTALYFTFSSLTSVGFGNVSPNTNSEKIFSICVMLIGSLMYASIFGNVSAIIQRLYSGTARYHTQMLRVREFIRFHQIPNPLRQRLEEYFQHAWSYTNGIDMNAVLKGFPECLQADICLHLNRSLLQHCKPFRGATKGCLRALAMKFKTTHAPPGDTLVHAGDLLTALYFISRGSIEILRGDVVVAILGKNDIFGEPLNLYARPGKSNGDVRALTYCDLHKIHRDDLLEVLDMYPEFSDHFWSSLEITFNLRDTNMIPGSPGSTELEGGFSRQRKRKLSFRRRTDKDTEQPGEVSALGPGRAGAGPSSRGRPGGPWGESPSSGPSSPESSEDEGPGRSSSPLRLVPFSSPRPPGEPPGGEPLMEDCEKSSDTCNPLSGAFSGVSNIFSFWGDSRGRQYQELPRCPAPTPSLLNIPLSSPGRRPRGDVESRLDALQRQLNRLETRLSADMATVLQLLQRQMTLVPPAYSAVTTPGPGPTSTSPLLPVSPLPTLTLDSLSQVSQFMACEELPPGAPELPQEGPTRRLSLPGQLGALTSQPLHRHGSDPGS
Glutamate receptor ionotropic, NMDA 2B, sequence (Q13224 whole entry): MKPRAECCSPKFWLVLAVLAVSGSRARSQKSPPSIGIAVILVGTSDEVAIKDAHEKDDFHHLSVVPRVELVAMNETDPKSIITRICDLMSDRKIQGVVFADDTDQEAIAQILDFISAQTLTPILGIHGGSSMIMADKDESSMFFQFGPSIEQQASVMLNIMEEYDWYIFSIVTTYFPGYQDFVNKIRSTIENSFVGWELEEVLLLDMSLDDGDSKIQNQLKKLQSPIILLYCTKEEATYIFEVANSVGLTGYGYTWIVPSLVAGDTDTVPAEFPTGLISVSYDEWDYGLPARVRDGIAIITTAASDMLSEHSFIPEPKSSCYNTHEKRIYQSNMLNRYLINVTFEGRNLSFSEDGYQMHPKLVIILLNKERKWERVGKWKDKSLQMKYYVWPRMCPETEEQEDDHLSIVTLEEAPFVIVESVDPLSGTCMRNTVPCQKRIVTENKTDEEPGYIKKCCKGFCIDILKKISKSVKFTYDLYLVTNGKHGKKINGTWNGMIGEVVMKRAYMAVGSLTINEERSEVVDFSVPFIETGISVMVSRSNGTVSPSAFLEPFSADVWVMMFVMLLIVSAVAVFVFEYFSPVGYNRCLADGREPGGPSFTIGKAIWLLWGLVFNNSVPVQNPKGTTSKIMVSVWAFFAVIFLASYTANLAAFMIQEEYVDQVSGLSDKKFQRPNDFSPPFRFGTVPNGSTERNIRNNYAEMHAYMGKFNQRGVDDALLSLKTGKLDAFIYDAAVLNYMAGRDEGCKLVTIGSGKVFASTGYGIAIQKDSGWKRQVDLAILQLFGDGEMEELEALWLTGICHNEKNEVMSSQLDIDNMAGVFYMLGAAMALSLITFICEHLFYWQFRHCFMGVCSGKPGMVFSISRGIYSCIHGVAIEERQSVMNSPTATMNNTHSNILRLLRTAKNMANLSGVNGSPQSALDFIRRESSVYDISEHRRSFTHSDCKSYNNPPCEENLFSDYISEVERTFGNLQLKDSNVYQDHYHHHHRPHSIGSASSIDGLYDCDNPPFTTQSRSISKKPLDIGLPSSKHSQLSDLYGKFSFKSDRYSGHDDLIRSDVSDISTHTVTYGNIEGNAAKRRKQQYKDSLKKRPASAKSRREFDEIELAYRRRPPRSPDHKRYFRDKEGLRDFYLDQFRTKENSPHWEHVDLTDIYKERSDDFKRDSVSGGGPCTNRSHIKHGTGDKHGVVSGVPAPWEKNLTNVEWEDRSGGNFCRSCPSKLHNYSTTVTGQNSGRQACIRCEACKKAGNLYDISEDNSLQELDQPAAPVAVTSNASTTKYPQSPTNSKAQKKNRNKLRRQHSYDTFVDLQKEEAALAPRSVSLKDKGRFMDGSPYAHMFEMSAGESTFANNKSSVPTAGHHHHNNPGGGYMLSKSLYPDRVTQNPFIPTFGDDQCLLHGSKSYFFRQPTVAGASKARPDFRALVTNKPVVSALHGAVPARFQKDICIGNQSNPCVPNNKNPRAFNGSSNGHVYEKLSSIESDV

Row | Structure (SMILES) | Ki [1] | IC50 [2] | IC50 [3] | Ki [4] | Ki [2] | Ratio [5]
1 | COc1ccccc1-c1cnc2c(c1)C(O)c1cccc(C#N)c1C=C2 (centres undefined) | 13 nM | 5450 nM | – | – | – | –
2 | N#Cc1cccc2c1C=Cc1ncc(-c3ccccc3)cc1C2 | 2 nM | 65 nM | – | – | – | –
3 | N#Cc1cccc2c1CCc1ncc(-c3ccccc3)cc1C2O (centres undefined) | 56 nM | 3560 nM | – | – | – | –
4 | Cc1ccccc1-c1cnc2c(c1)C(O)c1cccc(C#N)c1C=C2 (centres undefined) | 6 nM | 1350 nM | – | – | – | –
5 | N#Cc1cccc2c1C=Cc1ncc(N3CCCCC3)cc1C2O (single isomer, unassigned; (+)) | 35000 nM | 20000 nM | – | – | – | –
6 | N#Cc1cccc2c1C=Cc1ncc(-c3ccc(F)cc3)cc1C2O (centres undefined) | 3 nM | 512 nM | – | – | – | –
7 | N#Cc1cccc2c1C=Cc1ncc(-c3cccc(F)c3)cc1C2O (centres undefined) | 23 nM | 4970 nM | – | – | – | –
8 | Cc1ccc(-c2cnc3c(c2)C(O)c2cccc(C#N)c2C=C3)cc1 (centres undefined) | 10 nM | 1700 nM | – | – | – | –
9 | N#Cc1cccc2c1C=Cc1ncc(-c3ccccc3)cc1C2O (single isomer, unassigned; (+)) | 540 nM | 10000 nM | – | – | – | –
10 | Cc1cccc(-c2cnc3c(c2)C(O)c2cccc(C#N)c2C=C3)c1 (centres undefined) | 4 nM | 1100 nM | – | – | – | –
11 | N#Cc1cccc2c1CCc1ncc(-c3ccccc3)cc1C2 | 77 nM | 154 nM | – | – | – | –
12 | N#Cc1cccc2c(=O)c3cc(-c4ccccc4)cnc3ccc12 | 1000 nM | 882 nM | – | – | – | –
13 | N#Cc1cccc2c1C=Cc1ncc(N3CCCCCC3)cc1C2O (centres undefined) | 428 nM | 3000 nM | – | – | – | –
14 | CN1CCN(c2cnc3c(c2)C(O)c2cccc(C#N)c2C=C3)CC1 (centres undefined) | > 16000 nM | 42000 nM | – | – | – | –
15 | N#Cc1cccc2c1C=Cc1ncc(N3CCCCC3)cc1C2O (single isomer, unassigned; (-)) [listing 1 of 2 here] | 17 nM | 20000 nM | 27 nM | > 21000 nM | – | –
16 | N#Cc1cccc2c1C=Cc1ncc(-c3ccccc3F)cc1C2O (centres undefined) | 16 nM | 4440 nM | – | – | – | –
17 | N#Cc1cccc2c1C(=O)Nc1ncc(-c3ccccc3)cc1C2 | 19 nM | – | – | – | 431 nM | –
18 | N#Cc1cccc2c1C=Cc1ncc(N3CCCC3)cc1C2O (centres undefined) | 720 nM | 15500 nM | – | – | – | –
19 | N#Cc1cccc2c1C=Cc1ncc(-c3ccccc3)cc1C2O (racemic) | 2 nM | 5100 nM | – | – | – | –
20 | CC(=O)OC1c2cc(-c3ccccc3)cnc2C=Cc2c(C#N)cccc21 (centres undefined) | 10 nM | 653 nM | – | – | – | –
21 | N#Cc1cccc2c1C=Cc1ncc(N3CCOCC3)cc1C2O (centres undefined) | 196 nM | 20000 nM | – | – | – | –
22 | CC1CCN(c2cnc3c(c2)C(O)c2cccc(C#N)c2C=C3)CC1 (centres undefined) | 83 nM | 5300 nM | – | – | – | –
23 | COc1ccc(-c2cnc3c(c2)C(O)c2cccc(C#N)c2C=C3)cc1 (centres undefined) | 8 nM | 1610 nM | – | – | – | –
24 | N#Cc1cccc2c1C=Cc1ncc(-c3ccccc3)cc1C2O (single isomer, unassigned; (-)) | 1 nM | 590 nM | 9 nM | 5000 nM | – | –
25 | N#Cc1cccc2c1C=Cc1ncc(N3CCCCC3)cc1C2O (racemic) | 43 nM | 10000 nM | – | – | – | –
26 | N#Cc1cccc2c1C=Cc1ncc(N3CCCCC3)cc1C2O (single isomer, unassigned; (-)) [listing 2 of 2 here] | – | – | – | – | – | 1000
27 | COc1cccc(-c2cnc3c(c2)C(O)c2cccc(C#N)c2C=C3)c1 (centres undefined) | 9 nM | 1530 nM | – | – | – | –
28 | COC1c2cc(-c3ccccc3)cnc2C=Cc2c(C#N)cccc21 (centres undefined) | 4800 nM | 660 nM | – | – | – | –
